The source made the active and inactive calls. How the calls were made is not given here.
Assay: SKN7 mediated toxicity in Saccharomyces cerevisiae, growth rescue counterscreen, dose confirmation (AID 624258);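 further: growth read after three days of incubation at 30 °C; 0% = median of neutral control wells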
Details: S. cerevisiae SKN7-toxicity growth rescue, plate reader; at 6.8 µM (top of the series)

Row | SMILES | growth rescue activity
1 | CCc1cc(SC#N)cc(C)c1NC(=O)CCl | -50.8% (inactive)
2 | Cc1cc(C(=O)COC(=O)Cc2n[nH]c(=O)c3ccccc23)c(C)n1-c1cccc(C(F)(F)F)c1 | -21.5% (inactive)

Same assay, conditions: S. cerevisiae SKN7-toxicity growth rescue, plate reader; at 19.5 µM (top of the series)

Row | SMILES | growth rescue activity
3 | O=C(c1cc(COc2ccc(F)cc2Cl)on1)N1CCC(c2ccncc2)CC1 | -20.9% (inactive)
4 | Oc1cccc(/C=N/N(Cc2ccccc2)c2ccccc2)c1 | -91.5% (inactive)
5 | COC(=O)c1cc(C#N)c(Oc2ccc(F)cc2)nc1C | -11.6% (inactive)
6 | O=C(NCCCNc1ccc(C(F)(F)F)cc1[N+](=O)[O-])c1ccc(Cl)cc1 | -14.8% (inactive)
7 | COc1ccc(C(C)(C)C)cc1NC(=O)COC(=O)c1ccc([N+](=O)[O-])o1 | -88.2% (inactive)
8 | Oc1cccc2ccc(Nc3ccccn3)nc12 | 6.81% (inactive)
9 | O=C(CSc1nccn(-c2cccc(F)c2)c1=O)Nc1ccc(Cl)cc1F | 26.9% (inactive)
10 | CCCCC(=O)NC(c1ccco1)c1cc(Cl)c2cccnc2c1O (stereo unspecified) | -45% (inactive)
11 | CCCCC(c1nnnn1Cc1ccco1)N1CCN(c2nc3ccccc3s2)CC1 (stereo unspecified) | -9.41% (inactive)
12 | Cc1ccc(O)c(-c2cc(-c3ccccc3C)[nH]n2)c1 | -92.1% (inactive)
13 | CC(=O)NC(c1cccc([N+](=O)[O-])c1)c1ccc2cccnc2c1O (stereo unspecified) | -39.9% (inactive)
14 | COc1cccc(/C=N/NC(=O)c2nc(-c3ccccc3)cc(-c3ccccc3)n2)c1O | -39.2% (inactive)
15 | c1cnc2c(c1)ccc1cccnc12 | -64% (inactive)
16 | O=c1[nH]c2c(c(=O)[nH]1)OCN(Cc1ccccc1)C2 | -23.4% (inactive)
17 | CC1(C)C(C=C(Cl)Cl)C1C(=O)N1CCN(c2ccccc2)CC1 (stereo unspecified) | 6.49% (inactive)
18 | O=C(OCC(=O)C12CC3CC(CC(C3)C1)C2)c1ccc(O)cc1 | -10.8% (inactive)
19 | S=C(NCc1ccco1)Nc1ccc(Oc2ccc(Cl)cc2)cc1 | 26.1% (inactive)
20 | Cc1ccc(S(=O)(=O)/N=C2/C=C(C3C(=O)CC(C)(C)CC3=O)C(=O)c3ccccc32)cc1 | 18.5% (inactive)
21 | CCCCCCCCCCSc1n[nH]c(N)n1 | -93.1% (inactive)
22 | CC(C)C(=O)NC(c1ccco1)c1ccc2cccnc2c1O (stereo unspecified) | -67.3% (inactive)
23 | O=C1OCC(CO)(CO)N=C1NNc1ccc(Cl)c(Cl)c1 | -52.3% (inactive)
24 | COc1ccc(-c2oc3ccccc3c2C#Cc2cncn2C)cc1 | -49.1% (inactive)
25 | C[C@]12CCC(=O)C=C1CCC1C2CC[C@@]2(C)C1CC[C@]2(C)O (stereo partly specified) | -16.5% (inactive)
26 | CC(=O)Oc1ccc(OC(C)=O)c(SCCCCCCl)c1 | -46.3% (inactive)

Row | SMILES | growth rescue activity
27 | O=Nc1c(O)c2ccccc2c2ccccc12 | -91.5% (inactive)
28 | COc1ccc(N(C(=O)c2ccncc2)S(=O)(=O)c2ccccc2)cc1 | -61.4% (inactive)
29 | Cc1cc2nc(-c3ccc4c(c3)CCC4)ccn2n1 | -10.6% (inactive)
30 | O=c1c2ccccc2nc(-c2ccc(-c3ccccc3)cc2)n1-c1ccncc1 | -56.1% (inactive)
31 | O=C1C(=O)c2ccccc2C(O)=C1CC=C(Cl)Cl | -94.4% (inactive)
32 | O=C(COc1ccc(Cl)cc1)Nc1cccc(-c2ccc3nncn3n2)c1 | 13% (inactive)
33 | O=C(NOC(=O)c1ccccc1)c1ccccc1 | -77.5% (inactive)
34 | Cc1cc(SC#N)cc(C)c1NC(=O)CCl | -87% (inactive)
35 | CN(C)c1ccc(C=c2c3ccccc3n3c2cc(-c2ccc(Cl)cc2)[n+]3C)cc1 | -52.4% (inactive)
36 | O/N=C(\c1ccc(Cl)cc1Cl)c1ncc(C(F)(F)F)cc1Cl | -32.2% (inactive)
37 | CCCSC(=S)c1c(C)[nH]n(-c2ccccc2)c1=O | -53% (inactive)
38 | C=CCn1c(-c2cc(-c3ccc(C)cc3)nc3ccccc23)n[nH]c1=S | 0.203% (inactive)
39 | Cc1ccoc1C(=O)Nc1cccc(Oc2ccccc2)c1 | -88.5% (inactive)
40 | C=CCNc1nc(-c2ccccn2)nnc1-c1ccccc1 | -28.2% (inactive)
41 | Cc1cccc(/C=N/NC(=O)C(C)Nc2cccc3ccccc23)n1 (stereo unspecified) | -1.71% (inactive)
42 | Nc1ccc(CC2=NCCN2)cc1 | 34.1% (inactive)
43 | CCCCc1ccc(-n2c(Cc3cccs3)n[nH]c2=S)cc1 | -23.9% (inactive)
44 | CCCCn1c(=O)c(C(=O)NCc2ccncc2)c(O)c2ccccc21 | 33% (inactive)
45 | FC(F)(F)c1nc(SCc2ccc(Cl)cc2Cl)n[nH]1 | -80.8% (inactive)
46 | O=C(NCCN1C(=O)S/C(=C\c2cccc(Cl)c2Cl)C1=O)C1=COCCO1 | 13.6% (inactive)
47 | CSc1nc(-c2ccccc2F)c(C#N)c(=O)n1C | 47.9% (inactive)
48 | Cc1cc(C)c(C(=O)CC(=O)c2cccnc2)c(C)c1 | -57.9% (inactive)
49 | Cn1ccsc1=NC(=O)c1ccc([N+](=O)[O-])o1 | -53.8% (inactive)
50 | O=C(c1ccccc1)N1C(=O)C(c2ccccc2)Oc2ccccc21 (stereo unspecified) | -57.4% (inactive)

Row | SMILES | growth rescue activity
51 | Cc1nc2c(o1)C(=O)c1ccccc1C2=Nc1ccccc1 | -29.5% (inactive)
52 | O=C(CCNS(=O)(=O)c1ccc(Br)s1)N1CCN(c2ccccc2)CC1 | -25.4% (inactive)
53 | O=P(Nc1cccnc1)(Oc1ccccc1Cl)Oc1ccccc1Cl | -59% (inactive)
54 | O=C(COc1ccccc1F)Nc1nc(-c2ccccn2)cs1 | -57.2% (inactive)
55 | CC(=O)Oc1ccc(N2C(=O)C3C4C=CC(O4)C3C2=O)cc1 (stereo unspecified) | 16.1% (inactive)
56 | COc1cccc2c1C(=O)c1c(O)c3c(c(O)c1C2=O)C[C@@](O)(C(C)=O)C[C@@H]3O[C@H]1C[C@H](N)[C@H](O)[C@H](C)O1 | 23.7% (inactive)
57 | Cc1nn(CCC#N)c(N)c1C1(O)C(=O)Nc2c(Cl)cc(Cl)cc21 (stereo unspecified) | 12.9% (inactive)
58 | Cc1ccc(NC(=S)c2nc3ccccc3[nH]2)c(C)c1 | 32.1% (inactive)
59 | CC(C)(C)c1ccc(S(=O)(=O)/N=C2\C=C(NS(=O)(=O)c3ccccc3)C(=O)c3ccccc32)cc1 | -5.91% (inactive)
60 | O=[N+]([O-])c1ccc(Sc2ncccn2)c([N+](=O)[O-])c1 | -6.92% (inactive)
61 | O=C(Oc1c(Cl)cc(Cl)c2cccnc12)c1cccs1 | -79.3% (inactive)
62 | CC1CC(C)(O)CC(C(O)CC2CC(=O)NC(=O)C2)C1=O (stereo unspecified) | 2.36% (inactive)
63 | O=[N+]([O-])c1ccc(/C=N/NC(=S)Nc2ccc(Cl)cc2Cl)s1 | -44% (inactive)
64 | CC1(C)C2CCC1(C)C(OC(=O)c1ccc(O)cc1)C2 (stereo unspecified) | -86.9% (inactive)
65 | Cc1cc(O)ccc1N=Cc1c(C(F)(F)F)[nH][nH]c1=O | -11.8% (inactive)
66 | COc1cccc(Nc2nc(-c3cccs3)nc3ccccc23)c1 | -45.7% (inactive)
67 | CCCCCCCCCCOC(=O)Cn1c(COc2ccccc2OC)[n+](C)c2ccccc21 | -82.3% (inactive)
68 | O=S1(=O)CCN2C(=N1)Sc1c2ccc2c1CCCC2 | 5.5% (inactive)
69 | Oc1c(CN2CCCC2)cc(COCc2ccccc2)c2cccnc12 | 23.1% (inactive)
70 | CC(C)(C)C(O)C(Cc1ccccc1Cl)n1cncn1 (stereo unspecified) | -53.7% (inactive)
71 | CCn1nc(/C=C/c2ccccc2)nc2c(=O)n(C)c(=O)nc1-2 | -44.4% (inactive)
72 | CCCCCCCn1c(=O)c(C(=O)OC)c(N)c2ccccc21 | -87.1% (inactive)
73 | Nc1ncnc(Sc2ccccc2)c1[N+](=O)[O-] | 21.4% (inactive)
74 | Oc1c(Br)cc(Br)cc1CNc1ccc(F)cc1 | -92% (inactive)

Row | SMILES | growth rescue activity
75 | Cc1cccc(Nc2nc(-c3ccccn3)cs2)n1 | -59.7% (inactive)
76 | O=S(=O)(O)c1cc(Cl)cc(N=Nc2ccc(O)cc2O)c1O | 41.4% (inactive)
77 | Cc1ccsc1/C=C/c1ccc2cccc(O)c2n1 | -50.7% (inactive)
78 | O=C(c1ccccc1)c1coc2c1C(=O)c1ccccc1C2=O | 18.2% (inactive)
79 | C=CCOc1ccc(-c2n[nH]c(=S)o2)cc1 | -47.1% (inactive)
80 | CC12CCC(O)CC1=CCC1C2CCC2(C)C3=NN=CC3CC12 (stereo unspecified) | -53.7% (inactive)
81 | CCC(NC(=S)NCc1ccc(F)cc1)c1ccc(C(C)C)cc1 (stereo unspecified) | 41.2% (inactive)
82 | COC(=O)/C(=C/Nc1ccc(O)cc1)[N+](=O)[O-] | -10% (inactive)
83 | CC1(S(=O)(=O)O)CC(=O)c2ccccc2C1=O (stereo unspecified) | -12.1% (inactive)
84 | CCCCC(=O)NC(=S)NNC(=O)CCc1ccccc1 | -22.9% (inactive)
85 | CCC1=NN(C(=O)c2cccc(Br)c2)C(O)(c2ccc(Br)cc2)C1 (stereo unspecified) | -2.16% (inactive)
86 | Cc1cc(Nc2ccccc2)nn1C(=O)c1ccccc1 | 7.09% (inactive)
87 | CC1Oc2ccccc2C=C1/C=N/Nc1ccc(C(=O)O)cc1 (stereo unspecified) | -32.7% (inactive)
88 | Cc1ccc(S(=O)(=O)/N=C2/C=C(Sc3ncn[nH]3)C(=O)c3ccccc32)cc1 | 20.8% (inactive)
89 | CC12CNCC(C)(CN(C3(O)C(=O)Nc4ccc(Br)cc43)C1)C2=O (stereo unspecified) | -39.9% (inactive)
90 | O=C(CSc1ccc(-c2ccccn2)nn1)NCc1ccc(F)cc1 | 1.05% (inactive)
91 | CCCCNc1c(-c2ccc(-c3ccc(OC)cc3)c(OC)c2)nc2ccccn12 | -84.6% (inactive)
92 | CCc1cc(C(=O)Nc2nc(-c3ccccn3)cs2)sc1C | -67.6% (inactive)
93 | O=S(=O)(Nc1cc(Sc2ncn[nH]2)c(O)c2ccccc12)c1ccccc1 | -4.91% (inactive)
94 | Cn1ccc(=Nc2ccc(NC(=O)c3ccc(N=c4ccn(C)c5ccc([N+](=O)[O-])cc45)cc3)cc2)cc1 | -76.1% (inactive)
95 | CCCC(=O)NC(c1ccc(N(C)C)cc1)c1ccc2cccnc2c1O (stereo unspecified) | -7.33% (inactive)
96 | COc1nc(NC23CC4CC(CC(C4)C2)C3)nc(OC)n1 | 145% (inactive)

— PubChem BioAssay AID624258 (Broad Institute, 2012)
